Test results reported in PMC5650142, “GPR40 partial agonists and AgoPAMs: Differentiating effects on glucose and hormonal secretions in the rodent” (PLoS ONE, 2017).
Where “and” joins values, the source holds several entries; their conditions need not be identical. Equal entries are not always repeated. Where two headings read alike, the source gives them in different places.

Experiments:
human GPR40 [1] = biological target: T1, human GPR40 (Homo sapiens, UniProt O14842); test: Human GPR40 IP1 accumulation assay; assay type: cell-based; design: expressed in transfected cells
T1 sequence (O14842 whole entry): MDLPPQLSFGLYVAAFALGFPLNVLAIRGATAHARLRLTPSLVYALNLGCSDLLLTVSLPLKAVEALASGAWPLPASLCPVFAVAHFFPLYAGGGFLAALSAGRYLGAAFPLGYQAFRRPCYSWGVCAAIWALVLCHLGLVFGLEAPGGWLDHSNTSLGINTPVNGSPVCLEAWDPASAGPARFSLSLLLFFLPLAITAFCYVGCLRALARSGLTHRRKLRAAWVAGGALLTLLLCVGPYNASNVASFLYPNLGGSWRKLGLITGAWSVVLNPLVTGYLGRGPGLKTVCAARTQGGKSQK
How it was run: (§1)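 IP1 accumulation is measured by HTRF after 60 min compound stimulation at room temperature in LiCl (50 mM)-containing buffer. Compounds run in ½-log dilutions from a final top concentration of 10 μM or 1 μM. Cells are hGPR40/HEK293, mGPR40/CHO-K1 and rGPR40/CHO-K1. Activity is scaled between DMSO and a partial allosteric agonist and fitted to a 4-parameter curve for EC50 and maximum.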

mouse GPR40 = biological target: T2, mouse GPR40 (Mus musculus, UniProt Q76JU9); test: Mouse GPR40 IP1 accumulation assay; assay type: cell-based
T2 construct: expressed in transfected cells; host or cells: CHO-K1 (methods)
T2 sequence (Q76JU9 whole entry): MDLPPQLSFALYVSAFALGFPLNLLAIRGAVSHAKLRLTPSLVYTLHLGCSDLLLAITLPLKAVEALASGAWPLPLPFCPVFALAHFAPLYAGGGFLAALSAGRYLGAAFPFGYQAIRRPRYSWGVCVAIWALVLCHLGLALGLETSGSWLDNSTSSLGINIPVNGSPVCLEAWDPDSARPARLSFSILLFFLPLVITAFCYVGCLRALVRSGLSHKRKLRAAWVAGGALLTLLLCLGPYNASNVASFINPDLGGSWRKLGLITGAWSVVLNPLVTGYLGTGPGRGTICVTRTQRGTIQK
How it was run: as §1

human GPR40 [2] = biological target: T1, human GPR40; test: GPR40 binding assay, partial agonist tracer [3H]L358; design: expressed in transfected cells; host or cells: CHO / CHO-K1 cells, membrane preparation;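 for %Bound: 100% is tracer binding with DMSO alone and 0% is full displacement by a standard compound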
How it was run: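 SPA binding on membranes from CHO cells stably expressing human GPR40 (5 μg/well, with WGA beads) in Tris/MgCl2/EDTA buffer at room temperature. Each compound was tested against tracer [3H]L358 (partial-agonist site) or [3H]25 (AgoPAM site), since it may displace or augment tracer binding. Maximal % bound and IC50 were derived from scintillation counts.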

rat GPR40 = biological target: T3, rat GPR40 (Rattus norvegicus, UniProt Q8K3T4); test: Rat GPR40 IP1 accumulation assay; assay type: cell-based
T3 construct: expressed in transfected cells; host or cells: CHO-K1 (methods)
T3 sequence (Q8K3T4 whole entry): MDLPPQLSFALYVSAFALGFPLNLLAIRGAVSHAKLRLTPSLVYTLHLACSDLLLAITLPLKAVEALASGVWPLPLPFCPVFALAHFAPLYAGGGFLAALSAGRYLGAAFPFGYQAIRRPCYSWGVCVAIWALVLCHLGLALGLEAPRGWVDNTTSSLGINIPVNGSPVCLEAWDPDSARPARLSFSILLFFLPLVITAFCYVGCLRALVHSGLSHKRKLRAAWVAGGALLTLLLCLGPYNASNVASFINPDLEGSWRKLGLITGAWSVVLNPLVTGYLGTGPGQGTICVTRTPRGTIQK
How it was run: as §1

[3] = maximal % activity vs in-house partial agonist control
[4] = radioligand L-001533358, dose 0.318285 nM
[5] = radioligand L-001533358, dose 1.00578 nM
[6] = radioligand L-001533358, dose 3.17827 nM
[7] = radioligand L-001533358, dose 10.0433 nM
[8] = radioligand L-001533358, dose 31.7369 nM
[9] = radioligand L-001533358, dose 100.289 nM
[10] = radioligand L-001533358, dose 316.912 nM
[11] = radioligand L-001533358, dose 1001.44 nM
[12] = radioligand L-001533358, dose 3164.56 nM
[13] = radioligand L-001533358, dose 10000 nM

Cc1cc(OCCCS(C)(=O)=O)cc(C)c1-c1cccc(COc2ccc3c(c2)OC[C@H]3CC(=O)O)c1 [TAK-875, reference compound]
Human GPR40 Receptor Activation (%) (human GPR40 [1]; dose 2.00E-06 M): 100% | Human GPR40 Receptor Activation (%) (human GPR40 [1]; dose 2.00E-07 M): 90% | Human GPR40 Receptor Activation (%) (human GPR40 [1]; dose 2.00E-08 M): 81% | Human GPR40 Receptor Activation (%) (human GPR40 [1]; dose 2.00E-09 M): 31% | Human GPR40 Receptor Activation (%) (human GPR40 [1]; dose 2.00E-10 M): -1.34% | Human GPR40 Receptor Activation (%) (human GPR40 [1]; dose 6.00E-07 M): 95% | Human GPR40 Receptor Activation (%) (human GPR40 [1]; dose 6.00E-08 M): 98% | Human GPR40 Receptor Activation (%) (human GPR40 [1]; dose 6.00E-09 M): 48% | Human GPR40 Receptor Activation (%) (human GPR40 [1]; dose 6.00E-10 M): 16% | Human GPR40 Receptor Activation (%) (human GPR40 [1]; dose 6.00E-11 M): 3.69% | HUMAN GPR40 Functional Assay %Act (human GPR40 [1]; individual replicates (n)): 122% and 82% and 93% and 96% and 99% and 104% and 130% and 79% | Efficacy (% Activation), Human (human GPR40 [1]; [3]): (102%) | Mouse GPR40 Receptor Activation (%) (mouse GPR40; dose 1.20E-10 M): -5.6% | Mouse GPR40 Receptor Activation (%) (mouse GPR40; dose 1.99E-06 M): 140% | Mouse GPR40 Receptor Activation (%) (mouse GPR40; dose 1.99E-07 M): 129% | Mouse GPR40 Receptor Activation (%) (mouse GPR40; dose 1.99E-08 M): 125% | Mouse GPR40 Receptor Activation (%) (mouse GPR40; dose 2.00E-09 M): 44% | Mouse GPR40 Receptor Activation (%) (mouse GPR40; dose 5.98E-07 M): 147% | Mouse GPR40 Receptor Activation (%) (mouse GPR40; dose 5.98E-08 M): 122% | Mouse GPR40 Receptor Activation (%) (mouse GPR40; dose 5.99E-09 M): 87% | Mouse GPR40 Receptor Activation (%) (mouse GPR40; dose 5.99E-10 M): 23% | Mouse GPR40 Functional Assay %Act (mouse GPR40; individual replicates (n)): 131% and 140% and 174% and 156% and 154% and 110% and 134% and 185% and 133% and 107% and 152% | EC50 (mouse GPR40; individual replicates (n), read-out: Mouse GPR40 Functional Assay EC50): 2.6 nM and 3.1 nM and 3.4 nM and 4.3 nM and 4.6 nM and 5.4 nM and 5.5 nM and 6.5 nM and 6.9 nM and 8.2 nM and 1.6 nM and 1.9 nM | Efficacy (% Activation), Mouse (mouse GPR40; [3]): (145%) | EC50 (mouse GPR40; mean ± SD, n = 2–20, IP accumulation, read-out: Potency [EC50, nM] ± SD, Mouse): 4.4 ± 2.1 nM | HUMAN GPR40 Binding Data %Act (human GPR40 [2]; TAK875 sheet, individual replicates (n), tracer not given): 92% and 91% and 95% and 87% and 103% and 89% and 72% and 84% and 93% and 94% | Binding Results, % in parentheses, [^3H]L-358 (human GPR40 [2]; WT human GPR40, maximal % (not defined)): (91%) | binding of [^3H]L358 (human GPR40 [2]; human GPR40 membranes, competition binding): displace | % Bound Normalized to 100 (human GPR40 [2]; [4]): 100.25% | %Bound (human GPR40 [2]; [4]): 75.22% | inhibition at 0.000318285 µM (human GPR40 [2]; [4]): 15.4% | % Bound Normalized to 100 (human GPR40 [2]; [5]): 73.95% | %Bound (human GPR40 [2]; [5]): 48.92% | inhibition at 0.00100578 µM (human GPR40 [2]; [5]): 31.9% | % Bound Normalized to 100 (human GPR40 [2]; [6]): 83.61% | %Bound (human GPR40 [2]; [6]): 58.58% | inhibition at 0.00317827 µM (human GPR40 [2]; [6]): 49.3% | % Bound Normalized to 100 (human GPR40 [2]; [7]): 73.41% | %Bound (human GPR40 [2]; [7]): 48.38% | inhibition at 0.0100433 µM (human GPR40 [2]; [7]): 73.5% | % Bound Normalized to 100 (human GPR40 [2]; [8]): 43.62% | %Bound (human GPR40 [2]; [8]): 18.59% | inhibition at 0.0317369 µM (human GPR40 [2]; [8]): 84.4% | % Bound Normalized to 100 (human GPR40 [2]; [9]): 17.05% | %Bound (human GPR40 [2]; [9]): -7.97% | inhibition at 0.100289 µM (human GPR40 [2]; [9]): 102% | % Bound Normalized to 100 (human GPR40 [2]; [10]): 19.20% | %Bound (human GPR40 [2]; [10]): -5.83% | inhibition at 0.316912 µM (human GPR40 [2]; [10]): 111% | % Bound Normalized to 100 (human GPR40 [2]; [11]): 13.56% | %Bound (human GPR40 [2]; [11]): -11.46% | inhibition at 1.00144 µM (human GPR40 [2]; [11]): 105% | % Bound Normalized to 100 (human GPR40 [2]; [12]): 20.27% | %Bound (human GPR40 [2]; [12]): -4.75% | inhibition at 3.16456 µM (human GPR40 [2]; [12]): 111% | % Bound Normalized to 100 (human GPR40 [2]; [13]): 28.06% | %Bound (human GPR40 [2]; [13]): 3.03% | inhibition at 10 µM (human GPR40 [2]; [13]): 109% | Rat GPR40 Receptor Activation (%) (rat GPR40; dose 1.20E-10 M): -1.85% | Rat GPR40 Receptor Activation (%) (rat GPR40; dose 1.99E-06 M): 186% | Rat GPR40 Receptor Activation (%) (rat GPR40; dose 1.99E-07 M): 172% | Rat GPR40 Receptor Activation (%) (rat GPR40; dose 1.99E-08 M): 148% | Rat GPR40 Receptor Activation (%) (rat GPR40; dose 2.00E-09 M): 65% | Rat GPR40 Receptor Activation (%) (rat GPR40; dose 5.98E-07 M): 173% | Rat GPR40 Receptor Activation (%) (rat GPR40; dose 5.98E-08 M): 144% | Rat GPR40 Receptor Activation (%) (rat GPR40; dose 5.99E-09 M): 117% | Rat GPR40 Receptor Activation (%) (rat GPR40; dose 5.99E-10 M): 23% | Rat GPR40 Functional Assay %Act (rat GPR40; individual replicates (n)): 129% and 176% and 138% and 164% and 159% and 199% and 148% and 141% and 177% and 150% | EC50 (rat GPR40; individual replicates (n), read-out: Rat GPR40 Functional Assay EC50): 5.5 nM and 6.1 nM and 8.7 nM and 9.9 nM and 11.6 nM and 12.4 nM and 13.4 nM and 3.2 nM and 2.7 nM and 4.1 nM | Efficacy (% Activation), Rat (rat GPR40; [3]): (158%) | EC50 (rat GPR40; mean ± SD, n = 2–20, IP accumulation, read-out: Potency [EC50, nM] ± SD, Rat): 7.8 ± 4 nM
